Laboratory results from patent publication US9738639B2, “Pyrroloquinoline quinone lithium salt crystal and preparation method and application thereof” (SHANGHAI RI XIN BIOTECHNOLOGY CO., LTD., priority 2013, dated 2017).

Experiments:
[1] = Hygroscopicity by dynamic vapor sorption (DVS) analysis; assay type: physicochemical; conditions: for hygroscopicity: DVS
Description: Dynamic Vapor Sorption (DVS) curves of the polymorphs are measured on SMS DVS Intrinsic at 0-95% RH and 25° C.
The compound stably exists as a nonahydrate by dynamic vapor sorption analysis. It forms monohydrate under the scope of relative humidity (RH) from 20% to 50%. It forms dihydrate under the scope of relative humidity (RH) from 70% to 100%. It could forms polyhydrate with further increased relative humidity (RH).
Under the scope of relative humidity (RH) from 5% to 95%, the hygroscopicity of the intermediate A of pyrroloquinoline quinine lithium salt and the crystalline form B of pyrroloquinoline quinine lithium salt from example 1 is measured by dynamic vapor sorption analysis. […] The crystalline solid is not good. The hygroscopicity of the crystalline form B of pyrroloquinoline quinine lithium salt is 8.4% and 13.9% under the relative humidity (RH) of 65% and 80%, respectively. […] The crystalline solid is not good.

[2] = test system: APP/PS1 transgenic mice; test: Morris water maze probe test in APP/PS1 transgenic mice; assay type: in vivo; conditions: for Adjusted average distance of approaching to platform / Swimming path, I quadrant occupancy of platform / first time of crossing platform / time spent of IV quadrant / time, I quadrant occupancy of platform / times of crossing platform: probe test on 5th day, n = 10
Description: 1. […] 2. APP/PS1 transgenic mice (Model Animal Research Center of Nanjing University, weights of mice are from 30 g to 40 g, male, totally 60 mice). Sixty mice are randomized to six groups (group 2 to group 7) with ten mice for each group. […] group: 0.15 mg/mL […] solution is obtained by grinding one tablet (5 mg) of […] into powder, followed by dissolved in 0.5% CMC (carboxymethylcellulose). Morris water maze (Experimental video analysis system of Morris water maze, JLBehv-MWMG, Shanghai Jiliang Technology Co., Ltd) Group 1 and group 2 are daily administrated by normal saline and group 3 to group 7 are daily administrated by drug solutions prepared above, with the dosage of 1 mL/100 g/day for continuous one month. From the fifth week, mice are training in Morris water maze, 30 minutes after drug administration. The training session lasts for 4 days. The probe test performed on the 5th day. The Morris water maze statistics software is used to automatically record and analyze the swimming trace in the quadrant, time spent and path in target or opposite quadrant occupancy and times of crossing platform. The data is indicated as average±standard deviation (x±SD). The analysis of variance for a single factor is used for data difference statistics. Difference between groups is determined by P<0.05.

[3] = test system: glycogen synthase kinase-3 (GSK-3); conditions: background statement, no data; cited from earlier work
[4] = 0.375 mg/kg daily for one month

## O=C([O-])c1cc(C(=O)[O-])c2c(n1)C(=O)C(=O)c1cc(C(=O)[O-])[nH]c1-2.[Li+].[Li+].[Li+] [PQQ-Li, trilithium derivative of pyrroloquinoline quinine]
[1]; dynamic vapor sorption analysis
  hydrate form in which the compound stably exists: nonahydrate
[1]; listed as crystalline form B of pyrroloquinoline quinine lithium salt
  hygroscopicity variety under the normal moist environment for storage: 5-10%
[1]; relative humidity (RH) from 20% to 50%
  hydrate form: monohydrate
[1]; relative humidity (RH) from 70% to 100%
  hydrate form: dihydrate
[1]; relative humidity (RH) of 65%, listed as crystalline form B of pyrroloquinoline quinine lithium salt
  hygroscopicity: 8.4%
[1]; relative humidity (RH) of 80%, listed as crystalline form B of pyrroloquinoline quinine lithium salt
  hygroscopicity: 13.9%
[2]; [4]
  Adjusted average distance of approaching to platform: 762.6 mm
  Swimming path, I quadrant occupancy of platform: 961.6 mm
  first time of crossing platform: 44.9 s
  time spent of IV quadrant: 12.4 s
  time, I quadrant occupancy of platform: 2.8 s
  times of crossing platform: 0.8
[2]; 0.75 mg/kg daily for one month
  Adjusted average distance of approaching to platform: 674.9 mm
  Swimming path, I quadrant occupancy of platform: 2029.9 mm
  first time of crossing platform: 31.3 s
  time spent of IV quadrant: 15.8 s
  time, I quadrant occupancy of platform: 6.4 s
  times of crossing platform: 1.6
[2]; 1.5 mg/kg daily for one month
  Adjusted average distance of approaching to platform: 605.6 mm
  Swimming path, I quadrant occupancy of platform: 2653.3 mm
  first time of crossing platform: 22.7 s
  time spent of IV quadrant: 17.7 s
  time, I quadrant occupancy of platform: 8.9 s
  times of crossing platform: 2.2
[2]; 3 mg/kg daily for one month
  Adjusted average distance of approaching to platform: 572.5 mm
  Swimming path, I quadrant occupancy of platform: 2636.1 mm
  first time of crossing platform: 21.8 s
  time spent of IV quadrant: 19.5 s
  time, I quadrant occupancy of platform: 9.2 s
  times of crossing platform: 2.3
[2]; APP/PS1 transgenic mice, 0.375-3 mg/kg
  dose dependence of effects in Morris water maze test: good dose-dependent effects
[2]; APP/PS1 transgenic mice, Morris water maze test
  effect on spatial memory and cognitive impairment: significantly improved spatial memory and cognitive impairment

## O=C([O-])c1cc(C(=O)[O-])c2c(n1)C(=O)C(=O)c1cc(C(=O)[O-])[nH]c1-2.[Li+].[Li+].[Li+] [Pyrroloquinoline quinine lithium salt, trilithium derivative of pyrroloquinoline quinine]
[3]
  effect on glycogen synthase kinase-3 activities (GSK-3): suppress the glycogen synthase kinase-3 activities

## O=C([O-])c1cc(C(=O)[O-])c2c(n1)C(=O)C(=O)c1cc(C(=O)[O-])[nH]c1-2.[Li+].[Li+].[Li+] [trilithium derivative of pyrroloquinoline quinine, reference compound]
[1]; after the hygroscopicity comparison
  crystalline solid (assessment in words): not good
[1]
  hygroscopicity variety under the normal moist environment for storage: 5-25%
[1]; relative humidity (RH) of 65%
  hygroscopicity: 25.3%
[1]; relative humidity (RH) of 80%
  hygroscopicity: 32.6%

## COc1cc2c(cc1OC)C(=O)C(CC1CCN(Cc3ccccc3)CC1)C2 (stereo not shown) [Aricept, reference compound]
[2]; 1.5 mg/kg daily for one month
  Adjusted average distance of approaching to platform: 582.7 mm
  Swimming path, I quadrant occupancy of platform: 2730.8 mm
  first time of crossing platform: 30.7 s
  time spent of IV quadrant: 21.7 s
  time, I quadrant occupancy of platform: 9.3 s
  times of crossing platform: 1.6
